Experiments:
[1] = test system: Plasmodium falciparum; test: NOVARTIS: Inhibition of Plasmodium falciparum 3D7 (drug-susceptible) proliferation in erythrocyte-based infection assay; type: functional, organism-based; settings: Plasmodium falciparum, 3D7
[2] = test system: Plasmodium falciparum; test: NOVARTIS: Inhibition of Plasmodium falciparum W2 (drug-resistant) proliferation in erythrocyte-based infection assay; type: functional, organism-based
[3] = NOVARTIS: Cytotoxicity against human hepatocellular carcinoma cell line (Huh7); type: toxicity, cell-based, Huh-7; settings: Huh7 cells (hepatocellular carcinoma cell line)
[4] = Plasmodium falciparum, W2, read-out: EC50

SMILES | EC50 [1] [nM] | EC50 [2, 4] [nM] | CC50 [3] [nM] | EC50 [2]
Cc1ccc(S(=O)(=O)Nn2c(SCC(=O)NCCc3ccc(S(N)(=O)=O)cc3)nc3ccccc3c2=O)cc1 | > 12500 | 2490 | > 100000 | 
O=C(NNC(=O)c1csnn1)c1ccc(Cl)cc1 | 781 | 1290 | > 100000 | 
c1ccc(CNc2nc(Nc3ccccc3)nc3ccccc23)cc1 | 158 | 93.4 | 13500 | 
O=C(Nc1ccon1)c1cc(-c2cccnc2)nc2ccc(Br)cc12 | 1970 | 2510 | > 81000 | 
COc1ccc(N(CC(=O)NCCc2ccc(F)cc2)S(=O)(=O)c2ccccc2)cc1 | > 12500 | 5620 | > 100000 | 
Cn1cnnc1SCC(=O)Nc1ccccc1C(F)(F)F | > 12500 | 1190 | > 100000 | 
O=C(ON=C(c1ccncc1)c1ccc(Cl)cc1)c1ccccc1 | 1240 | > 48 | > 10000 | 
CN(CCCNc1ccnc2cc(Cl)ccc12)S(=O)(=O)c1ccc(Cl)c([N+](=O)[O-])c1 | 243 | 185 | 3140 | 
CCOC(=O)c1cnc2ccc(OC)cc2c1Cl | 2760 | 1250 | > 100000 | 
COc1ccc(C2CC(=O)C3=C(C2)NC(C)=C(C(=O)OC(C)C)C3c2ccc([N+](=O)[O-])cc2)cc1OC (stereo not drawn) | 31.9 | 31.8 | > 100000 | 
O=C1CCC(CCNCc2ccc(Cl)cc2)N1CC1(N2CCCCC2)CCCC1 (stereo not drawn) | > 1250 | 632 | > 10000 | 
O=C(Nc1ccccc1Cl)c1cc2ccccc2cc1O | 327 | 298 | > 100000 | 
CCN(CC)CCCC(C)Nc1ccnc2cc(Cl)ccc12 (stereo not drawn) [CHLOROQUINE] | 2.43 | 83.7 | 12400 | 
CC1CC2CCC(O2)C(C)C(=O)O[C@H](C)CC2CCC(O2)C(C)C(=O)OC(C)CC2CCC(O2)C(C)C(=O)O[C@H](C)CC2CCC(O2)C(C)C(=O)O1 (stereo partly drawn) | 645 | 699 | > 6250 | 
c1cc2cc3ccc(OCCN4CCCCC4)cc3nc2cc1OCCN1CCCCC1 | 348 | 772 | > 10000 | 
Cc1cc(NC(=O)C2c3ccccc3C(=O)N(CC(C)C)C2c2cccs2)no1 (stereo not drawn) | 85.6 | 45.3 | > 100000 | 
CC(=O)NC(=Cc1ccc(OC(F)F)cc1)C(=O)O | > 12500 | 2270 | > 100000 | 
Cc1ccc2nc(C(C#N)=Cc3cn(Cc4ccc(Cl)cc4Cl)nc3-c3ccccc3)[nH]c2c1 | 1820 | 1590 | > 100000 | 
O=C1c2ccccc2-c2nnc(-c3ccccc3)cc21 | 268 | 392 | > 10000 | 
CCOCCCNc1nc2cc(OC)c(OC)cc2c2nc(-c3ccccc3)nn12 | 83.1 | 56.3 | > 100000 | 
CC1=C2C(=O)c3ccccc3C2NC(=O)N1 (stereo not drawn) | > 352 | > 12500 | > 100000 | 
COc1cncc(-c2cncc(-c3ccc(C)cc3)n2)c1 | 94.9 | 85.2 | > 100000 | 
Cc1c(C)c(C)c(CNC(=S)NN)c(C)c1C | 4090 | > 11400 | > 100000 | 
CCCCS(=O)(=O)N(C)CCCNc1ccnc2cc(Cl)ccc12 | 68.8 | < 9.18 | > 10000 | 
Cc1cccc(OCC(=O)Nc2cccc(NC(=O)COc3cccc(C)c3)n2)c1 | 237 | 1160 | > 100000 | 
CCCN(C(=O)Nc1c(C(C)C)cccc1C(C)C)C(CC)c1nc2ccccc2c(=O)n1-c1cccc(C)c1 (stereo not drawn) | 3170 | 4580 | 80900 | 

SMILES | EC50 [1] [nM] | EC50 [2, 4] [nM] | CC50 [3] [nM] | EC50 [2]
CCCCCCCC(=O)N1CCN(C(=O)C(NC(=O)Nc2ccc(Cl)cc2Cl)C(C)CC)CC1 (stereo not drawn) | > 40.8 | 701 | > 10000 | 
O=C1C(=Cc2ccccc2)Oc2c1ccc(O)c2CN1CCCCC1 | 1420 | 91 | > 100000 | 
Cc1oc2c(c1C(=O)N1CCN(C)CC1)C(=O)c1ccccc1C2=O | 829 | 335 | 5460 | 
COc1ccc(C(=O)/C(C#N)=C/NC2CCN(Cc3ccccc3)CC2)cc1 | 256 | > 1580 | > 10000 | 
C(=C1\C(c2ccccc2)=Nc2ccccc21)/c1c(-c2ccccc2)[nH]c2ccccc12 | 210 | 36.4 | > 10000 | 
O=C(NN1CCOCC1)c1ccc(Br)cc1 | > 1510 | > 997 | > 10000 | 
CC(C(=O)NN=C1CCN(C)CC1)N(c1ccccc1)S(C)(=O)=O (stereo not drawn) | > 1250 | 1270 | > 10000 | 
O=[N+]([O-])c1ccc2nc(Nc3ccccc3)c(Nc3ccccc3)nc2c1 | 941 | 955 | 21700 | 
Clc1ccc(-c2csc3ncnc(NCc4ccncc4)c23)cc1 | 2890 | 746 | > 100000 | 
Cc1cccc(NC(=O)c2ccc(N3CC4CC(C3)c3cccc(=O)n3C4)c(NC(=O)Cc3c(F)cccc3Cl)c2)n1 (stereo not drawn) | > 1450 | 197 | > 10000 | 
Cc1ccc(-n2c(C)c(C(=O)c3ccccc3)c3cc(O)ccc32)cc1 | 508 | 615 | > 100000 | 
Cc1nc2cc(-c3ccc(Br)cc3)nn2c(O)c1C | 2740 |  | > 100000 | No fit
O=C1NC(=S)N/C1=C/c1cccc(Oc2ccccc2)c1 | 1880 | > 191 | > 10000 | 
COc1cc(NC(=O)Cn2c3ccccc3c(=O)c3ccccc32)cc(OC)c1OC | 2730 | 816 | > 100000 | 
CCCN(CCC)CCCNc1ccc(C(=O)Nc2ccc(C)c(F)c2)cc1[N+](=O)[O-] | 146 | 268 | 10600 | 
CCOc1ccc(C(=O)Nc2cc(OC)ccc2OC)cc1 | > 1250 | > 917 | > 10000 | 
CC(C)(C)C1=NN(CC(=O)NCCc2c[nH]cn2)C(=O)c2cc3ccccc3n2C1 | > 1250 | > 614 | > 13200 | 
CN(C)CCCNc1c2ccccc2nc2ccccc12 | 32.7 | 387 | 8450 | 
COc1ccccc1-n1c(C=Cc2cc(Br)ccc2O)nc2ccccc2c1=O | 2070 | 1240 | 19400 | 
Cc1ccc(NC(=O)C(C)Sc2nnc(-c3ccc(O)cc3)o2)cc1 (stereo not drawn) | > 1250 | 601 | > 10000 | 
CN1C(=O)NC(c2cccnc2)C(C(=O)c2cccs2)C1(O)C(F)(F)F (stereo not drawn) | > 11200 | > 10000 | > 100000 | 
CCNC(=O)N1CCN(CCN(C/C=C/c2ccccc2OC)C(=O)CC(C)CC(C)(C)C)CC1 (stereo not drawn) | > 1250 | 1430 | > 10000 | 
Cc1ccc2nc(-c3ccc(NC(=O)c4ccc(S(=O)(=O)N5CC(C)CC(C)C5)cc4)cc3)sc2c1 (stereo not drawn) | 1320 | > 1250 | > 10000 | 
COC(=O)C1=C(OC)C(=O)OC12C=CC(=O)C=C2 | 2220 | 423 | 2520 | 
Nc1ccc(-c2nc3ccc(-c4nc5ccc(N)cc5[nH]4)cc3[nH]2)cc1 | 120 | 55.6 | > 100000 | 

From ChEMBL document CHEMBL1156829 (Proc Natl Acad Sci U S A, 2008)
